Like-named read-outs stand apart in the source and are kept apart here.
Tests used:
[1] = test system: MES-SA cells; assay: MTT viability assay, MES-SA; assay type: cell-based, human; conditions: Homo sapiens, MES-SA; Table 2, value outside brackets; read-out: MES-SA (toxicity, Table 2)
From the text: (§1) MDCK II canine kidney cells, A431 epidermoid carcinoma cells, the human uterine sarcoma cell lines MES-SA and the doxorubicin selected MES-SA-Dx5 were obtained from ATCC (MDCK II: No. CRL-2936™, A431: No. CRL-1555™, MES-SA: No. CRL-1976™, MES-SA/Dx5: No. CRL-1977™). ABCB1 was expressed in A431 and MES-SA cells using lentiviral transduction. The human cervix carcinoma cell line KB-3-1 and the vinblastine selected KB-v1were kind gifts from Dr. Michael M. Gottesman, National Institutes of Health. The phenotype of the resistant cells was verified using cytotoxicity assays. MDCK-B1 and MDCK-MM were established by the Sleeping Beauty transposon-based gene delivery system. OVCAR-8 and NCI-ADRres cells (obtained from the Division of Cancer Treatment and Diagnosis (DCTD) Tumor Repository (National Cancer Institute, Frederick, MD, USA)) were cultivated in RPMI-1640 (Sigma Aldrich, Budapest, Hungary), and other cell lines were cultivated in Dulbecco’s Modified Eagle Medium (DMEM, Sigma Aldrich, Budapest, Hungary), supplemented with 10% fetal bovine serum, 5 mM glutamine, and 50 unit/mL penicillin and streptomycin (Life Technologies, Carlsbad, CA, USA). All cell lines were cultivated at 37 °C, 5% CO2.
(§2) MTT viability assays were performed as described earlier with minor modifications. Briefly, cells were seeded into 96-well tissue culture plates (Sarstedt, Newton, NC, USA/Orange, Braine-l’Alleud, Belgium) at a density of 5000 cells/well and allowed to attach overnight. Test compounds were added to achieve the required final concentration in a final volume of 100 µL per well. After an incubation period of 72 h, the supernatant was removed and fresh medium containing the MTT reagent (0.083 mg/mL) was added. Incubation with MTT at 37 °C was terminated after 1 h by removing the supernatant and lysing the cells with 100 µL DMSO per well. Viability of the cells was measured spectrophotometrically based on the absorbance values at 540 nm using either a Perkin Elmer Victor X3 or an EnSpire microplate reader. Data were background corrected by subtraction of the signal obtained from unstained cell lysates and normalized to untreated cells. Curves were fitted by Prism software (GraphPad Software Inc., San Diego, CA, USA) using the sigmoidal dose-response model (comparing variable and fixed slopes). […] Significance was calculated using unpaired t-tests; results are given as *: p ≤ 0.05, **: p ≤ 0.01, ***: p ≤ 0.001, ****: p ≤ 0.0001.

[2] = test system: MES-SA/Dx5 cells; assay: MTT viability assay, MES-SA/Dx5; assay type: cell-based, human; conditions: for IC50: Homo sapiens, MES-SA/Dx5, read-out: MES-SA/Dx5 (toxicity, Table 2)
From the text: as §1, §2

[3] = pKa by UV-visible spectrophotometric titrations; assay type: physicochemical; conditions: 0.2 M KCl (ionic strength), T = 25 °C, I = 0.2 M (KCl)
[4] = test system: MES-SA cells; assay: ROS determination with DCFDA, MES-SA; assay type: cell-based, human; conditions: 2 h
Protocol: (§3) Measurements were performed as described earlier. Briefly, cells were harvested, washed with PBS, and incubated with 10 µM DCFDA in a water bath shaker at 37 °C for 30 min in a density of 3 × 10^6 cells/mL. After washing with PBS, cells were seeded to 96-well plates in PBS in a density of 2 × 10^4 cells/well. Following the measurement of the basal fluorescence, test compounds were added in different concentrations and the fluorescence of the samples was followed at time intervals of 10 min. DCFDA solution in buffer was used as a cell free control to test for interaction of the test compounds with DCFDA. Data were analyzed as fold change of fluorescence compared to basal levels and untreated cells. Significance was calculated using unpaired t-tests; results are given as *: p ≤ 0.05, **: p ≤ 0.01, ***: p ≤ 0.001, ****: p ≤ 0.0001.
(§4) Table S3: Characterization of intracellular ROS production with the DCFDA assay for P -gp negative MES-SA and P-gp positive MES-SA/Dx5 cells. Fold changes in fluorescence are shown after a 2 h with the investigated 8 -hydroxyquinoline ligands. Data S-refer to Figure 7 and allow […]
(§5) concentration range from 6.25µ M to 50µ M. Fold change of fluorescence obtained in the presence of 5 mM NAC is given in brackets.

[5] = test system: MES-SA/Dx5 cells; assay: ROS determination with DCFDA, MES-SA/Dx5; assay type: cell-based, human; conditions: 2 h
Protocol: as §3, §4, §5

[6] = Table 2, value outside brackets
[7] = Table 2, value in brackets (Tariquidar as in Table 1)
[8] = group named in the cell (NmorpholiniumH+, NpiperidiniumH+, NbenzylamineH2+), read-out: pKa (additional)
[9] = 6.25 µM, presence of 5 mM NAC (brackets)
[10] = 12.5 µM, presence of 5 mM NAC (brackets)
[11] = 25 µM, presence of 5 mM NAC (brackets)
[12] = 50 µM, presence of 5 mM NAC (brackets)
[13] = MES-SA/Dx5, 6.25 µM, presence of 5 mM NAC (brackets)
[14] = MES-SA/Dx5, 12.5 µM, presence of 5 mM NAC (brackets)
[15] = MES-SA/Dx5, 25 µM, presence of 5 mM NAC (brackets)
[16] = MES-SA/Dx5, 50 µM, presence of 5 mM NAC (brackets)

| pKa [3, 8] | pKa ([3]; read-out: pKa (NquinoliniumH+)) | pKa ([3]; read-out: pKa (OH)) | Compound | IC50 [1] [nM] | IC50 [2, 6] [nM] | SR MES-SA/Dx5 (Table 2) [2, 7] | SR MES-SA/Dx5 (Table 2) [2, 6] | Fold change in fluorescence (DCFDA) ([4]; 6.25 µM) | Fold change in fluorescence (DCFDA) [4, 9] | Fold change in fluorescence (DCFDA) ([4]; 12.5 µM) | Fold change in fluorescence (DCFDA) [4, 10] | Fold change in fluorescence (DCFDA) ([4]; 25 µM) | Fold change in fluorescence (DCFDA) [4, 11] | Fold change in fluorescence (DCFDA) ([4]; 50 µM) | Fold change in fluorescence (DCFDA) [4, 12] | Fold change in fluorescence (DCFDA) ([5]; MES-SA/Dx5, 6.25 µM) | Fold change in fluorescence (DCFDA) [5, 13] | Fold change in fluorescence (DCFDA) ([5]; MES-SA/Dx5, 12.5 µM) | Fold change in fluorescence (DCFDA) [5, 14] | Fold change in fluorescence (DCFDA) [5, 15] | further results |
| --- | --- | --- | --- | --- | --- | --- | --- | --- | --- | --- | --- | --- | --- | --- | --- | --- | --- | --- | --- | --- | --- |
| 5.83 ± 0.02 | < 2 | 9.68 ± 0.03 | Oc1c(CN2CCOCC2)cc(Cl)c2cccnc12 [Compound 5-Cl-Q-2] | 1400 ± 240 | 640 ± 30 | 1.39 | 2.19 | 1.896± 0.32 | 1.600± 0.55 | 2.226± 0.39 | 1.263± 0.62 | 2.086± 0.66 | 1.309± 0.51 | 2.609± 0.77 | 1.178± 0.40 | 2.594± 0.87 | 1.246± 0.47 | 3.214± 0.86 | 1.651± 0.73 | 1.265± 0.27 | Fold change in fluorescence (DCFDA) ([5]; MES-SA/Dx5, 50 µM): 4.697± 3.24; Fold change in fluorescence (DCFDA) [5, 16]: 1.462± 0.39 |
| 7.16 ± 0.03 | 1.61 ± 0.04 | 4.85 ± 0.02 | Oc1c(CN2CCCCC2)cc(Cl)c2cccnc12 [Compound 5-Cl-Q-3] | 1300 ± 210 | 150 ± 10 | 1.61 | 8.40 | 1.672± 0.27 | 1.307± 0.51 | 1.861± 0.40 | 1.542± 0.35 | 1.812± 0.27 | 1.382± 0.67 | 2.075± 0.68 | 1.155± 0.25 | 1.975± 0.50 | 1.024± 0.19 | 1.954± 0.42 | 0.954± 0.14 | 1.005± 0.21 | Fold change in fluorescence (DCFDA) ([5]; MES-SA/Dx5, 25 µM): 2.714± 0.84; Fold change in fluorescence (DCFDA) ([5]; MES-SA/Dx5, 50 µM): 3.077± 1.29; Fold change in fluorescence (DCFDA) [5, 16]: 1.086± 0.14 |

From paper PMC7796460, “Relation of Metal-Binding Property and Selective Toxicity of 8-Hydroxyquinoline Derived Mannich Bases Targeting Multidrug Resistant Cancer Cells” (Cancers, 2021)
